Test results as given in patent US7709537B1, “Food materials useful in preventing and ameliorating metabolic bone diseases and preventives/remedies for metabolic bone diseases comprising these materials” (Meiji Dairiese Corporation, priority 1999, dated 2010).

Columns and labels:
[1] = test system: osteoclasts from ddY mouse co-culture; experiment: Cytotoxicity against osteoclasts on a piece of dentinum; assay type: cell-based; conditions: differentiated and matured mouse osteoclasts (FIG. 11)
Description: A still further investigation was also conducted on TRAP-positive cells formed by a co-culture system of primary osteoblast-like interstitial cells derived from the calvaria of a mouse newborn and mouse bone marrow cells. […] Effects of ACNQ on the activity of a bone re sorbing system were then investigated. Measured were the formation of resorption lacunae and cytotoxicity on a piece of dentinum in an osteoclast forming system by co-culture of primary osteoblast-like interstitial cells derived from the calvaria of the above mouse newborn and mouse bone marrow cells.
Those osteoclast-like polykaryocytes were prepared to 4×10^3 cells/mL with αMEM medium containing 10% FBS, seeded at 100 μL/well into wells (96 wells) in which pieces of dentinum were placed, respectively, and cultured at 37° C. for 2 hours. After the culture, the individual cultures were transferred to 24 wells or 48 wells in which a culture medium was placed at 0.5 to 1.5 mL/well. At the same time, ACNQ solutions of various concentrations were added to the wells, respectively, followed by culture at 37° C. for 24 hours. […] After the staining solution was removed, resorption lacunae formed in the surface of each piece of dentinum as a result of binging by […] were counted under a microscope. […]

[2] = test system: stromal cell line ST-2 derived from mouse bone marrow; experiment: ALP activity of ST-2 cells cultured with ACNQ (osteogenesis promoting effect); assay type: cell-based
Description: Cells of the stromal cell line ST-2 derived from mouse bone marrow (Udagawa, N. et al.: Endocrinology 125, 1805-1813, 1989) were used as osteoblasts. These cells have similar osteoclast differentiation inducing ability for bone marrow cells as osteoblasts.
The cells were seeded in the individual wells of a 96-well plate at 4×10^4 cells/well, and cultured for 1 day in RPMI 1640 medium which contained 10% FBS, penicillin G and streptomycin.
The medium was replaced by the same medium which contained ACNQ, and cultured further for 3 days. After the culture, the ALP activity of cells was assayed.
(§1) The cells were washed with PBS, and then immobilized with ethanol for 1 minute. An enzyme reaction solution (a buffer containing p-nitrophenyl phosphate, 0.1 M glycine, 1 mM MgCl2 and 0.1 mM ZnCl2 as substrates, pH 10.5) of 37° C. was added to have the cells reacted at 37° C. for 30 minutes. An equiamount of 0.05 N NaOH was added to quench the reaction. ALP activity was expressed in terms of units, with 1 unit representing the amount of p-nitrophenol formed in a minute per mg-protein as measured in terms of absorbance at 415 nm). Protein contents were determined using a protein assay kit (product of Bio-Rad Lab.). Further, the cytotoxicity of ACNQ was measured by MTT assay (FIG. 5).

[3] = test system: stromal cell line ST-2 derived from mouse bone marrow; experiment: Cytotoxicity of ACNQ by MTT assay in ST-2 cells; assay type: cell-based; conditions: at the peak concentration of ALP activity, 1 μg/mL (FIG. 5)
Description: as §1

[4] = test system: human osteoblasts (SaM-1); experiment: Mineralization (Ca and P accumulation in extracellular matrices) of human osteoblasts; assay type: cell-based; conditions: SaM-1 cells, 32 days, 2 mM glycerophosphoric acid
Description: Employed were cultured human osteoblasts (SaM-1), which had been established from the periosteum of an ulna of a person obtained during a surgical operation of a fractured bone. Those SaM-1 cells were equipped with all the characteristics of osteoblasts (Koshihara, Y. et al.: In Vitro Cell, Dev. Biol., 25, 37-43, 1989). SaM-1 cells are known to promote mineralization in the presence of 2 mM a-glycerophosphoric acid, depending upon the concentration of 1α,25(OH)2D3.
SaM-1 cells of 18 PDL (population doubling level) were seeded to a 12-well plate, and cultured to a confluent state. a-Glycerophosphoric acid, a mineralization promoter, was then added to 2 mM. […]
Ca in each extracellular matrix was quantitated by using a kit (“Calcium C Test Wako”) based on the o-cresolphthalein complexone method (OCPC method).
After completion of the culture, the cells were washed with Hanks' solution. […] Five minutes later, the reaction mixtures were measured by an absorptiometer (570 nm)(FIG. 6).
P in each extracellular matrix was quantitated by the method proposed by Chen et al. (Chen, P. S. et al.: Anal. Chem., 28, 1756-1758, 1956).
0.84% Ammonium molybdate, 2 N sulfuric acid and 10% ascorbic acid were mixed at 3:3:1 (volume ratio) to prepare a reaction reagent. The extracts (100 μL) obtained in the above-described Ca quantitation were each diluted with distilled water (800 μL). […]

[5] = test system: primary osteoblast-like interstitial cells and bone marrow cells of ddY mice; experiment: Osteoclast formation in co-culture of mouse osteoblast-like interstitial cells and bone marrow cells; assay type: cell-based
Description: (2) The calvaria of ddY mice newborn were enzymatically treated (with a mixed solution of collagenase and disperse) to obtain primary osteoblast-like interstitial cells. On the other hand, bone marrow cells were isolated from the femurs and shinbones of the same strain mice (males of 6 to 9 weeks of age). The primary osteoblast-like interstitial cells and bone marrow cells were co-cultured in the presence of ACNQ to investigate differentiation induction effect of ACNQ on osteoclasts.
Using αMEM added with 10% FBS, a culture which contained the primary osteoblast-like interstitial cells and the bone marrow cells at a cell count ratio of about 1:20 was co-cultured in the presence of 10^−8 M to 10^−10 M 1α,25(OH)2D3 for 6 to 8 days. During the culture period, ACNQ solutions of various concentrations and as a control for comparison, vitamin K2 which is known to inhibit the formation of osteoclasts, were added, respectively, upon culture medium replacement (replaced by a half of the volume of the culture medium; replaced on every third days).
Cells, which were positive to TRAP staining and internally contained 3 or more nuclei per cell, were collected as differentiated osteoclasts. […]

[6] = test system: human osteoblasts (SaM-1); experiment: Cytotoxicity by free LDH in culture supernatant of SaM-1 cells; assay type: cell-based; conditions: 32nd day of culture, 10^−5 M to 10^−7 M (FIG. 8)
Description: Using “LDH-Cytotoxic Test Wako” (cytotoxicity assay kit), free LDH in each culture supernatant was measured to investigate the cytotoxicity of ACNQ. Culture supernatants on the 32nd day of culture were sampled, and subsequent to a staining reaction, their LDH concentrations were measured by using a microplate reader (540 nm).

[7] = test system: human bone marrow cells (monocytes); experiment: Formation of TRAP-positive polykaryocytes in culture of human bone marrow monocytes; assay type: cell-based
Description: (1) Human bone marrow cells obtained during an artificial caput replacement operation were subjected to density-gradient centrifugation to collect monocytes. Those monocytes were seeded into α-MEM medium, which contained 20% equine serum and 10^−8 M 1α,25(OH)2D3, to give 8×10^5 cells/well (079 cm^2), and were then cultured for […]. The cultures were each replaced twice a week by a half of its volume each time. Addition of ACNQ was conducted at the beginning.
On the 16th day of culture, the cultures were treated with pronase and EDTA to eliminate stromal cells. On the following day, the cells were washed with PBS(−) and then immobilized with formalin. The formalin-immobilized cells were subjected to TRAP staining, and the TRAP-positive polykaryocyte counts of the respective wells were determined. Vitamin K1 was used as a control.

[8] = test system: osteoclast-like polykaryocytes from ddY mouse co-culture; experiment: Formation of bone resorption lacunae on a piece of dentinum by osteoclasts; assay type: cell-based; conditions: 24 hours on dentinum, even at the highest concentration, 7.5 μg/mL (FIG. 11)
Description: Investigated was the effect of ACNQ on the formation of bone resorption lacunae on a piece of dentinum by osteoclasts.
As in the test (2) of Test 4, a culture (20 mL) containing primary osteoblast-like interstitial cells, which had been derived from the calvariae of ddY mice newborn, and bone marrow cells, which had been isolated from the femurs and shinbones of the same strain mice (males of 6 to 9 weeks of age), at a ratio of 1×10^6 cells to 1×10^7 cells in a 100 mm dish was co-cultured for 6 to 8 days on a collagen gel in αMEM medium in which 10% FEB and 10^−8 M 1α,25(OH)2D3 had been added. Medium replacement was conducted on every third days. After the culture, a 0.2% collagenase solution was added. The thus-obtained mixture was gently shaken at 37° C. for 20 minutes to digest the collagen gel, and differentiation-induced osteoclast-like polykaryocytes were collected. The count of osteoclasts obtained by this method was at most 4×10^4 cells/100 mm-dish.
Those osteoclast-like polykaryocytes were prepared to 4×10^3 cells/mL with αMEM medium containing 10% FBS, seeded at 100 μL/well into wells (96 wells) in which pieces of dentinum were placed, respectively, and cultured at 37° C. for 2 hours. […] After the staining solution was removed, resorption lacunae formed in the surface of each piece of dentinum as a result of binging by […] were counted under a microscope. […]

[9] = test system: osteoclast formation; conditions: side chains of vitamin K1 or K2; Hara, K. et al.: Bone, 16, 179-184, 1995; cited from earlier work

## NC1=C(C(=O)O)C(=O)c2ccccc2C1=O [ACNQ, 2-amino-3-carboxy-1,4-naphthoquinone]
[1]
  cytotoxicity against osteoclasts: does not exhibit cytotoxicity against osteoclasts
[2]; 3 days culture (FIG. 4)
  ACNQ concentration at which ALP activity reached the peak: ~1 µg/mL
[2]; 3 days culture, up to an ACNQ concentration of 1 μg/mL (FIG. 4)
  ALP activity of the cells: increased concentration-dependently
[3]
  cytotoxicity (MTT assay, viable cell count): cytotoxicity was not observed at all
[4]; 10^−5 M to 10^−7 M (FIGS. 6 and 7)
  mineralization (Ca and P accumulation): promote mineralization concentration-dependently
[5]; mouse co-culture with 1α,25(OH)2D3, 6 to 8 days, ACNQ 0.15 to 15 μg/mL (FIG. 10)
  differentiation and maturation of monocytes into osteoclasts (TRAP-positive cells with 3 or more nuclei): inhibited differentiation and maturation
[5]; mouse co-culture, ACNQ at 1.5 μg/mL and higher (FIG. 10)
  formation of osteoclasts: considerably inhibited the formation of osteoclasts
[6]
  cytotoxicity (free LDH in culture supernatant): not determined to show cytotoxicity
[7]; human monocytes with 10^−8 M 1α,25(OH)2D3, ACNQ 10^−8 M to 10^−5 M (FIG. 9)
  formation of osteoclasts (TRAP-positive polykaryocytes): inhibited the formation of osteoclasts concentration-dependently
[7]; human monocytes, same concentration as vitamin K1 (FIG. 9)
  inhibitory effect on osteoclast formation compared with vitamin K1: significantly stronger than that available from vitamin K1
[8]
  bone resorbing activity of osteoclasts (resorption lacunus counts): did not lower the bone resorbing activity of osteoclasts

## C=C1/C(=C\C=C2/CCC[C@]3(C)[C@@H]([C@H](C)CCCC(C)(C)O)CC[C@@H]23)C[C@@H](O)C[C@@H]1O [1α,25(OH)2D3, reference compound]
[4]; 10^−8 M to 10^−9 M (FIGS. 6 and 7)
  mineralization (Ca and P accumulation): promote mineralization concentration-dependently

## C/C(=C\CO)CCC[C@H](C)CCC[C@H](C)CCCC(C)C [phytol]
[9]
  osteoclast-formation inhibitory effect: weak in the inhibitory effect
